This is an account of results in US20260166128A1, “HUMAN AMYLIN ANALOG, AND DERIVATIVE THEREOF AND USE THEREOF” (priority 2022, published 2026).

Numbered stars: 1 amine (or outer) side, 2 acyl side, 3 side chain; on linkers, the order of the positions; unused ones are H or OH. Bridge positions count the residues as written; N and C are the ends. Square brackets hold non-standard residues; d marks the D form. Side chains are listed from the residue outwards. Peptide text beside a SMILES is read from it. * marks the point of attachment. C20 diacid = O=C(O)CCCCCCCCCCCCCCCCCCC(=O)*; C18 diacid = O=C(O)CCCCCCCCCCCCCCCCC(=O)*; γGlu = O=C(O)[C@H](CCC(=O)[*:2])N[*:1]; βAsp = O=C(O)[C@H](CC(=O)[*:2])N[*:1]; Hyp = O=C(O)[C@@H]1C[C@@H](O)CN1; Orn = NCCC[C@H](N)C(=O)O; AEEA = NCCOCCOCC(=O)O

The target of the test is T1, human amylin receptor (Homo sapiens, UniProt O60896+P30988).
T1 construct: host or cells: CHO-K1/Ga15/AMY3 cells, further stably transfected with a CRE-luciferase plasmid
T1 sequence (P30988 25-474): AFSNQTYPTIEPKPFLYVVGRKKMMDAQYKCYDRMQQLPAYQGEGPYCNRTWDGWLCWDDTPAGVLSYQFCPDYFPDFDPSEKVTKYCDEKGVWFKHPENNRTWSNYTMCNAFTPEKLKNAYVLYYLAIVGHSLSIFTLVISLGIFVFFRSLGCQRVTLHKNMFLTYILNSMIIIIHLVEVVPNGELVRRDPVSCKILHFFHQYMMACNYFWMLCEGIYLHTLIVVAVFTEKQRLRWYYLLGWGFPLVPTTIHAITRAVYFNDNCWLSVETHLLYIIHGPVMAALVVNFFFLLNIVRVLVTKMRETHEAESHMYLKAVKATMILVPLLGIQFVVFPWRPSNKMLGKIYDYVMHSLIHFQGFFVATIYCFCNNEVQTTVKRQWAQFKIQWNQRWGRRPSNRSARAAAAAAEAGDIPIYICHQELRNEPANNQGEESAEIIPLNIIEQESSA
T1 sequence (O60896 24-148 partner): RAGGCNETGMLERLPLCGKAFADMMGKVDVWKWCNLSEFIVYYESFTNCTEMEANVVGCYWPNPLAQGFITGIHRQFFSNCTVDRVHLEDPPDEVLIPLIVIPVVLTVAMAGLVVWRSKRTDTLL
In words: Luciferase assay of amylin derivatives in amylin receptor/CRE-luc CHO cell line. The format is cell-based. The note with it: CHO-K1/Ga15/AMY3 CRE-luc cells, 24 hours incubation, F12 medium containing 10% FBS; read-out: EC50.
Method: The experiment was intended to detect the activity or efficacy of the amylin derivatives on a human amylin receptor in vitro by luciferase assay.
50 μL of growth medium (F12 medium containing 10% FBS) was added into each well of a white 96-well plate, and the stably transfected amylin/CRE-lue CHO cells were inoculated into the white 96-well plate at a density of about 20,000 cells/well for activity determination.
Regarding `CC[C@H](C)[C@H](NC(=O)[C@@H]1CCCN1C(=O)CNC(=O)[C@H](CCCCNC(=O)COCCOCCNC(=O)COCCOCCNC(=O)CC[C@H](NC(=O)CCCCCCCCCCCCCCCCC(=O)O)C(=O)O)NC(=O)[C@H](CC(N)=O)NC(=O)[C@H](CC(N)=O)NC(=O)[C@H](CO)NC(=O)[C@H](CO)NC(=O)[C@H](Cc1c[nH]cn1)NC(=O)[C@H](CCCNC(=N)N)NC(=O)[C@H](CC(C)C)NC(=O)[C@H](Cc1ccccc1)NC(=O)[C@H](CC(=O)O)NC(=O)[C@H](C)NC(=O)[C@H](CC(C)C)NC(=O)[C@H](CCCNC(=N)N)NC(=O)[C@H](CCC(N)=O)NC(=O)[C@@H](NC(=O)[C@H](C)NC(=O)[C@@H]1CSSC[C@H](NC(=O)[C@@H](N)CCCNC(=N)N)C(=O)N[C@@H](CC(N)=O)C(=O)N[C@@H]([C@@H](C)O)C(=O)N[C@@H](C)C(=O)N[C@@H]([C@@H](C)O)C(=O)N1)[C@@H](C)O)C(=O)N[C@@H](CC(C)C)C(=O)N1CCC[C@H]1C(=O)N1CCC[C@H]1C(=O)N[C@H](C(=O)N[C@@H](CC(N)=O)C(=O)N[C@H](C(=O)NCC(=O)N[C@@H](CO)C(=O)N[C@@H](CC(N)=O)C(=O)N[C@H](C(=O)N1C[C@H](O)C[C@H]1C(N)=O)[C@@H](C)O)C(C)C)[C@@H](C)O` [PD085] (H-RCNTATCATQRLADFLRHSSNNK([AEEA-AEEA-γGlu-C18 diacid])GPILPPTNVGSNT[Hyp]-NH2; disulfide 2-7), the 50% effective concentration (EC50) was found to be 0.005 nM. The result for `CC[C@H](C)[C@H](NC(=O)[C@@H]1CCCN1C(=O)CNC(=O)[C@H](CCCCNC(=O)CC[C@H](NC(=O)CCCCCCCCCCCCCCCCCCC(=O)O)C(=O)O)NC(=O)[C@H](CC(N)=O)NC(=O)[C@H](CC(N)=O)NC(=O)[C@H](CO)NC(=O)[C@H](CO)NC(=O)[C@H](Cc1c[nH]cn1)NC(=O)[C@H](CCCNC(=N)N)NC(=O)[C@H](CC(C)C)NC(=O)[C@H](Cc1ccccc1)NC(=O)[C@H](CC(=O)O)NC(=O)[C@H](C)NC(=O)[C@H](CC(C)C)NC(=O)[C@H](CCCNC(=N)N)NC(=O)[C@H](CCC(N)=O)NC(=O)[C@@H](NC(=O)[C@H](C)NC(=O)[C@@H]1CSSC[C@H](NC(=O)[C@@H](N)CCCNC(=N)N)C(=O)N[C@@H](CC(N)=O)C(=O)N[C@@H]([C@@H](C)O)C(=O)N[C@@H](C)C(=O)N[C@@H]([C@@H](C)O)C(=O)N1)[C@@H](C)O)C(=O)N[C@@H](CC(C)C)C(=O)N1CCC[C@H]1C(=O)N1CCC[C@H]1C(=O)N[C@H](C(=O)N[C@@H](CC(N)=O)C(=O)N[C@H](C(=O)NCC(=O)N[C@@H](CO)C(=O)N[C@@H](CC(N)=O)C(=O)N[C@H](C(=O)N1C[C@H](O)C[C@H]1C(N)=O)[C@@H](C)O)C(C)C)[C@@H](C)O` [PD082] (H-RCNTATCATQRLADFLRHSSNNK([γGlu-C20 diacid])GPILPPTNVGSNT[Hyp]-NH2; disulfide 2-7) reads 0.038 nM. For `CC[C@H](C)[C@H](NC(=O)[C@@H]1CCCN1C(=O)[C@H](CCCCNC(=O)CC[C@H](NC(=O)CCCCCCCCCCCCCCCCCCC(=O)O)C(=O)O)NC(=O)[C@H](CC(C)C)NC(=O)[C@H](CC(N)=O)NC(=O)[C@H](CC(N)=O)NC(=O)[C@H](CO)NC(=O)[C@H](CO)NC(=O)[C@H](Cc1c[nH]cn1)NC(=O)[C@H](CCCNC(=N)N)NC(=O)[C@H](CC(C)C)NC(=O)[C@H](Cc1ccccc1)NC(=O)[C@H](CC(=O)O)NC(=O)[C@H](C)NC(=O)[C@H](CC(C)C)NC(=O)[C@H](CCCNC(=N)N)NC(=O)[C@H](CCC(N)=O)NC(=O)[C@@H](NC(=O)[C@H](C)NC(=O)[C@@H]1CSSC[C@H](NC(=O)[C@@H](N)CCCN)C(=O)N[C@@H](CC(N)=O)C(=O)N[C@@H]([C@@H](C)O)C(=O)N[C@@H](C)C(=O)N[C@@H]([C@@H](C)O)C(=O)N1)[C@@H](C)O)C(=O)N[C@@H](CC(C)C)C(=O)N1CCC[C@H]1C(=O)N1CCC[C@H]1C(=O)N[C@H](C(=O)N[C@@H](CC(N)=O)C(=O)N[C@H](C(=O)NCC(=O)N[C@@H](CO)C(=O)N[C@@H](CC(N)=O)C(=O)N[C@H](C(=O)N1C[C@H](O)C[C@H]1C(N)=O)[C@@H](C)O)C(C)C)[C@@H](C)O` [PD075] (H-[Orn]CNTATCATQRLADFLRHSSNNLK([γGlu-C20 diacid])PILPPTNVGSNT[Hyp]-NH2; disulfide 2-7), the EC50 is 0.048 nM. With `CC[C@H](C)[C@H](NC(=O)[C@@H]1CCCN1C(=O)[C@H](CCCCN)NC(=O)[C@H](CC(C)C)NC(=O)[C@H](CC(N)=O)NC(=O)[C@H](CC(N)=O)NC(=O)[C@H](CO)NC(=O)[C@H](CO)NC(=O)[C@H](Cc1c[nH]cn1)NC(=O)[C@H](CCCNC(=N)N)NC(=O)[C@H](CC(C)C)NC(=O)[C@H](Cc1ccccc1)NC(=O)[C@H](CC(=O)O)NC(=O)[C@H](C)NC(=O)[C@H](CC(C)C)NC(=O)[C@H](CCCNC(=N)N)NC(=O)[C@H](CCC(N)=O)NC(=O)[C@@H](NC(=O)[C@H](C)NC(=O)[C@@H]1CSSC[C@H](NC(=O)[C@H](CCCCN)NC(=O)COCCOCCNC(=O)COCCOCCNC(=O)C[C@H](NC(=O)CCCCCCCCCCCCCCCCCCC(=O)O)C(=O)O)C(=O)N[C@@H](CC(N)=O)C(=O)N[C@@H]([C@@H](C)O)C(=O)N[C@@H](C)C(=O)N[C@@H]([C@@H](C)O)C(=O)N1)[C@@H](C)O)C(=O)N[C@@H](CC(C)C)C(=O)N1CCC[C@H]1C(=O)N1CCC[C@H]1C(=O)N[C@H](C(=O)N[C@@H](CC(N)=O)C(=O)N[C@H](C(=O)NCC(=O)N[C@@H](CO)C(=O)N[C@@H](CC(N)=O)C(=O)N[C@H](C(=O)N1C[C@H](O)C[C@H]1C(N)=O)[C@@H](C)O)C(C)C)[C@@H](C)O` [PD183] ({C20 diacid-βAsp-AEEA-AEEA}-KCNTATCATQRLADFLRHSSNNLKPILPPTNVGSNT[Hyp]-NH2; disulfide 2-7) the figure was 0.04 nM.

On to `CC[C@H](C)[C@H](NC(=O)[C@@H]1CCCN1C(=O)[C@H](CCCCN)NC(=O)[C@H](CC(C)C)NC(=O)[C@H](CC(N)=O)NC(=O)[C@H](CC(N)=O)NC(=O)[C@H](CO)NC(=O)[C@H](CO)NC(=O)[C@H](Cc1c[nH]cn1)NC(=O)[C@H](CCCNC(=N)N)NC(=O)[C@H](CC(C)C)NC(=O)[C@H](Cc1ccccc1)NC(=O)[C@H](CC(=O)O)NC(=O)[C@H](C)NC(=O)[C@H](CC(C)C)NC(=O)[C@H](CCCNC(=N)N)NC(=O)[C@H](CCC(N)=O)NC(=O)[C@@H](NC(=O)[C@H](C)NC(=O)[C@@H]1CSSC[C@H](NC(=O)[C@@H](N)CCCCNC(=O)CC[C@H](NC(=O)CCCCCCCCCCCCCCCCCCC(=O)O)C(=O)O)C(=O)N[C@@H](CC(N)=O)C(=O)N[C@@H]([C@@H](C)O)C(=O)N[C@@H](C)C(=O)N[C@@H]([C@@H](C)O)C(=O)N1)[C@@H](C)O)C(=O)N[C@@H](CC(C)C)C(=O)N1CCC[C@H]1C(=O)N1CCC[C@H]1C(=O)N[C@H](C(=O)N[C@@H](CC(N)=O)C(=O)N[C@H](C(=O)NCC(=O)N[C@@H](CO)C(=O)N[C@@H](CC(N)=O)C(=O)N[C@H](C(=O)N1C[C@H](O)C[C@H]1C(N)=O)[C@@H](C)O)C(C)C)[C@@H](C)O` [PD072] (H-K([γGlu-C20 diacid])CNTATCATQRLADFLRHSSNNLKPILPPTNVGSNT[Hyp]-NH2; disulfide 2-7), for which the EC50 amounted to 0.027 nM.
